Results on 2 compounds are retold here after patent US20170189376A1, “BUTYROYLOXYMETHYL DIETHYL PHOSPHATE COMPOUNDS AND USES THEREOF” (MOR RESEARCH APPLICATIONS LTD., priority 2016, published 2017).

Experiment [1] has as its system MyLa cells. Description: Alkaline comet assay, MyLa cells. The following applies: 96 h after treatment, relative to 24 h. Format: cell-based, human. As to the method:
(§1) Comet assay using the Trevigen Comet assay kit (Trevigen Inc., Gaithersburg, Md., USA) was done according to the manufacturer's protocol. MyLa or Hut78 cells were treated with drugs, washed, incubated for interval time, washed in PBS, counted and suspended in PBS. 1 ×10^5 cells/ml were incubated with pre-heated low melting agarose for 20 min in 37° C., loaded on a comet-slide and kept in the dark for 30 min at 4° C., in cold lysis solution for another 20 min, and finally for 20 min with unwinding solution in RT. The slides were run with cold fresh alkaline electrophoresis buffer in the COMET-20 electrophoresis system (Scie-Plas, Harvard apparatus, UK) for 20 min in 21 volts, 4° C. Slides were stirred gently and washed twice in dH20 bath for 5 min and in 70% ethanol for 5 min. […] The cells were scored under fluorescence microscope (Nikon eclipse 55i, Tokyo, Japan) at a magnification ×10. Cell scores were analyzed using the software “Comet Assay IV” (perceptive instruments, UK). […] 24h after treating the cells the mean tail moment reaches its maximal level, therefore the percent of repaired damage was calculated as follows: (mean tail moment at 24h)−(mean tail moment at indicated time)/mean tail moment at 24 h. At least a total of 100 cells were measured per time-point. […]

Experiment [2] has as its system Hut78 cells. Description: Alkaline comet assay, Hut78 cells. The following applies: Hut78, 72 h after treatment, relative to 24 h. In kind it is cell-based, homo sapiens. As to the method:
as §1

In experiment [3] the test system is p-KAP1, γH2AX in MyLa cells. Briefly: Western blot of p-KAP1 and γH2AX, MyLa cells. In kind it is cell-based, human. As to conditions: 1 mM AN-7 2 h, 1 μM Dox 1 h, or AN-7 1 h followed with Dox 1 h. On the procedure: Cell fraction—3×10^6cells were suspended in 100 μl hypotonic buffer (HEPES 10 mM, KCl 5 mM, MgCl2 1.5 mM, DTT 1 mM, NP-40 1%), incubated for 15 min in ice, centrifuged and the supernatant fraction was subjected to western blot of pKAP1 and actin. The sediment was washed once with hypotonic buffer followed by suspension in 100 μl of hypertonic buffer (HEPES 10 mM, NaCl 500 mM, MgCl2 1.5 mM, DTT 1 mM, NP-40 1%), incubated for 15 min in ice, centrifuged, supernatant was removed and the sediment was boiled, vortexed for 10 min at 95° C. with sample buffer ×3 for 3 times and subjected to western blot of γH2AX.
(§2) Whole cells extract—Cells were suspended in lysis buffer (Tris-HCl 50 mM, NaCl 150 mM, NP-40 0.5%), incubated for lh on ice, centrifuged and the supernatant was collected. Protease and Phosphatase inhibitors were added to all buffers at a 1:100 dilutions. […] Bands were visualized by Odyssey Infrared Imaging System and the bands intense were normalized to actin.
Next, cells were fractionated and fraction lysate were subjected to western blot of phosphorylated KAP1 (p-KAP1), γH2AX and actin.

In experiment [4] the test system is γH2AX foci in Hut78 cells. Description: γH2AX nuclear foci immunofluorescence, Hut78 cells. Format: cell-based, homo sapiens. The following applies: Hut78, 24 h-72 h after treatment, relative to 3 h. On the procedure: MyLa or Hut78 cells were treated with drugs, washed, incubated for interval time, and then 2×10^5cells/m1 were centrifuged with cyto-slides (CytoSlide, Shandon, Thermo, Ma, USA) in CYTOSPIN 4 (Shandon, Thermo scientific, West Palm Beach, USA) for 5 min 1000 rpm. Slides were washed with cold PBS on ice, pre-extracted with cold PBS-NP40-0.2% for 10 min, washed 3 times with cold PBS, fixed with 4% Paraformaldehyde for 10 min at RT, and washed 3 times with PBS. Slides were incubated with anti γ-H2AX, Bethyl A300-081A 1:1000, for 1.5 h in RT, washed twice in PBS-T (0.05% Tween in PBS) and once with PBS, incubated with Donkey anti rabbit IgG Alexa Fluor A-21206 1:700, for 30 min at RT, washed 3 times with PBS, dried gently, covered with 1 drop of Fluorescent mounting medium with DAPI (GBI-labs, WA, USA) and on top with cover glass. Slides were visualized in a light microscope (Olympus BX52, Tokyo, Japan). Foci analysis was performed using ImageJ software and PZfociEZ plugin. % of cells with >5 foci/cell was considered as damaged cells. % of repaired damage was calculated as follows: (% of cells with >5 foci/cell at 3 h)−(% of cells with >5 foci/cell at indicated time)/(% of cells with >5 foci/cell at 3 h). At least a total of 150 cells were measured per time-point.

The subject of experiment [5] is NBS1, Rad51, Mre11, DNA-PK, Ku70 in MyLa cells. Briefly: Western blot of DSB repair proteins, MyLa cells. Format: cell-based, human. As to conditions: 24 and 48 h post treatment. As to the method: as §2
(§3) To address whether AN-7 interfere in DSBs repair by regulating the expression of DSBs repair proteins, Immunoblot was applied for those proteins. MyLa and Hut78 cells were treated as previously described and subjected to western blot of DSBs repair proteins.

The test system of experiment [6] is NBS1, Rad51, Mre11, DNA-PK, Ku70 in Hut78 cells. Description: Western blot of DSB repair proteins, Hut78 cells. Format: cell-based, homo sapiens. The following applies: Hut78, 18 and 24 h post treatment. As to the method: as §2, §3
Experiment [7] concerns MyLa cells. Briefly: MTT-based viability assay, MyLa cells. The following applies: Homo sapiens, 72 h.
Method: (§4) MyLa cells (10^4), Hut78 cells (5×10^3), SPBL and NPBL (10^5) were seeded in triplicate in 96-well plates. The PBL were activated with PHA 40 μg/10^6 cell for 24 h before the experiment. […] The cells were then placed in a humidified incubator for 72 h. […] The MTT reagent was added to a final concentration of 0.5 mg/mL, and the cells were incubated for an additional 4 h. Thereafter, 0.1N HCl in isopropanol was added, and cell viability was determined using an ELISA reader (PowerWaveX, BioTek, Winooski, Vt., USA) at a 570 nm wavelength with background subtraction at 630-690 nM.
(§5) Viability and apoptosis curves were based on the averages of at least 3 independent experiments. The standard error (SE) was calculated for each group as follows: SE=standard deviation/√n, where n is number of values in the group. […] Significant differences in selectivity among groups were analyzed by comparing the IC50 values using two-tailed unpaired t-test using Excel or by comparing the differential effects for all the dose response titrations using ANOVA with repeated measures.
For experiment [8], the system named is Hut78 cells. Briefly: MTT-based viability assay, Hut78 cells. As to conditions: Homo sapiens, HuT78, 72 h, read-out: IC50 single treatment Dox.
Method: as §4, §5
Experiment [9] has as its system Sezary syndrome Peripheral blood lymphocytes SPBL. Briefly: MTT-based viability assay, Sezary PBL (SPBL). The following applies: Homo sapiens, Lymphocyte, 72 h, read-out: IC50 single treatment Dox.
Method: (§6) Peripheral blood was diluted 1:3 in sterile phosphate-buffered saline (PBS). Lymphoprep was added in the same blood volume with a Pasteur pipette, and the sample was centrifuged. PBL were collected from the white median interphase, rinsed twice with PBS, and suspended in RPMI medium with 10 mM HEPES to 2×10^6 cells/mL.
as §4, §5
(§7) NPBL were treated at same molar ratio as SPBL.
For experiment [10], the system named is NPBL. Briefly: MTT-based viability assay, normal PBL (NPBL).
Method: as §6, §4, §5, §7
For experiment [11], the system named is MyLa cells. Briefly: cells. Format: cell-based, human. The following applies: Homo sapiens.
Experiment [12] relates to caspase 3, PARP, P21 and Bax in MF/SS cell lines. Briefly: Western blot of pro-apoptotic proteins in MF/SS cell lines. Format: cell-based, human. The following applies: MyLa and Hut78, SAHA 10 μM or AN-7 300 μM. From the text:
However, there was a stronger signal in response to SAHA.

Experiment [13] deals with HDAC1. Briefly: Western blot of HDAC1 protein expression in MF/SS cell lines. Format: cell-based, human. The following applies: MyLa and Hut78, SAHA 10 μM or AN-7 300 μM.
Experiment [14] has as its system Acetylated H3. Briefly: Western blot of acetylated H3 in nuclear lysate of MF/SS cell lines. As to conditions: MyLa and Hut78, SAHA 10 μM or AN-7 300 μM.
Method: Cells (5×10^6) were suspended in 300 μL of cytoplasmic buffer (HEPES 10 mM, KCl 10 mM, EDTA 1 mM, EGTA 1 mM, DTT 1 mM). After 20 min of incubation on ice, the mixture was passed 5 times through a 25-G syringe and then centrifuged briefly to obtain the cytoplasmic supernatant.
The nuclear pellet was suspended in 40-60 μL of nuclear buffer (cytoplasmic buffer+10% glycerol), incubated with shaking at 4° C. for 15 min, and centrifuged. The supernatant was collected as a nuclear fraction.
Cell extracts were separated by SDS-polyacrylamide gel electrophoresis (SDS-PAGE), transferred to a nitrocellulose membrane, and subjected to immunoblot with primary and secondary antibodies, as listed in table 1.
The test system of experiment [15] is MyLa cells. Briefly: FACS analysis with annexin V and PI staining (apoptosis), MyLa cells. As to conditions: SAHA 10 μM or AN-7 300 μM.
Method: (§8) The cells (2.5×10^6 cells/mL) were washed in PBS and binding buffer and were resuspended in binding buffer, and of fluorescein isothiocyanate-conjugated annexin V (5 μL) was added to a 100 μL cell suspension for 10-15 min. Incubation was performed at room temperature under light-protected conditions. The cells were then washed in binding buffer and were resuspended in the binding buffer and propidium iodide (PI) (5 μL) was added. The samples were analyzed by flow cytometry (FACS Calibur 4.1.6, Becton Dickinson): fluorescein-labeled annexin V at a 530 nm wavelength, and PI at a 585 nm wavelength. The percentage of cells was calculated by their distribution in a fluorescence dot plot generated with FCS Express 4 software (De Novo Software, Los Angeles, Calif., USA). Early (annexin V-positive) and late (annexin V+PI-positive) apoptotic cells were summed to yield the total number of apoptotic cells.
Experiment [16] has as its system Hut78 cells. Briefly: FACS analysis with annexin V and PI staining (apoptosis), Hut78 cells. As to conditions: Hut78; SAHA 10 μM or AN-7 300 μM.
Method: as §8

Regarding `COc1cccc2c1C(=O)c1c(O)c3c(c(O)c1C2=O)C[C@@](O)(C(=O)CO)C[C@@H]3O[C@H]1C[C@H](N)[C@H](O)[C@H](C)O1` [Dox, doxorubicin, reference compound], in [1], the “damage repair (DNA breaks, mean tail moment)” value is given as “about 72%”. Moreover, in experiment [2], the “repair of DNA breaks (mean tail moment)” value is on record as “about 50%”. For the same compound, the “induction and clearance of p-KAP1” value in [3] was “detected at 1-3 hours and declined after 24 hours”. Further, in experiment [3], the “induction and clearance of γH2AX” value is on record as “clearance of γH2AX observed at 24 h”. For the same compound, in [4], the “percentage of repaired damage (γH2AX foci)” value was 77.9%. Also, the “expression of NBS1, Mre11, Rad51 and DNA-PK” value in experiment [5] is “did not affect the expression of DSB repair proteins”. The “expression of NBS1 and DNA-PK” value in experiment [6] was “did not affect the expression of DSB repair proteins”. The half-inhibitory concentration (IC50) in experiment [7] (read-out: IC50 single treatment Dox) was 19 ± 1 nM; in experiment [8], 27 ± 2.6 nM; in experiment [9] it was 68.2 ± 10.8 nM; in experiment [10] (Homo sapiens, 72 h, read-out: IC50 single treatment Dox), 399 ± 24.3 nM.

With `O=C(CCCCCCC(=O)Nc1ccccc1)NO` [SAHA, Suberoylanilide hydroxamic acid, reference compound], the IC50 in experiment [11] (24 h, read-out: IC50 Long exposure) stood at 2300 ± 80 nM; in [11] (read-out: IC50 Short exposure) it was 33000 ± 3700 nM; in experiment [7] (read-out: IC50 single treatment (HDACI)), 2200 ± 100 nM. In experiment [12], the “expression of pro-apoptotic proteins (western blot)” value was “cleavage of caspase 3 and poly ADP-ribose polymerase (PARP) and the production of P21 and Bax”. The HDAC1 expression level result in [13] is “downregulated”. Moreover, the “NPBL survival at high doses” value in [10] (high doses lethal to Hut78 and MyLa cells) is “lethal to all cells”. The “expression of acetylated H3” value in [14] is on record as “induced”. The apoptosis result in experiment [15] and in experiment [16] was “about 60%” throughout.
